Assay results as given in PubChem BioAssay (NCI).
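Five concentrations, 48 hours, 96-well plates. Here, GI50 denotes the concentration required for 50% inhibition of growth. Definition used: TGI = concentration required for complete inhibition of growth.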

What was measured:
Assay in all cases: NCI-60 cell line screen, 48 h
CAKI-1 renal = system: CAKI-1 renal
IGROV1 ovarian = system: IGROV1 ovarian
NCI-H226 lung = system: NCI-H226 lung
OVCAR-4 ovarian = system: OVCAR-4 ovarian
OVCAR-8 ovarian = system: OVCAR-8 ovarian
SNB-19 CNS = system: SNB-19 CNS
UACC-257 melanoma = system: UACC-257 melanoma
HCC-2998 colon = system: HCC-2998 colon
M14 melanoma = system: M14 melanoma
HS 578T breast = system: HS 578T breast

Compound | TGI (CAKI-1 renal) | TGI (IGROV1 ovarian) | TGI (NCI-H226 lung) | TGI (OVCAR-4 ovarian) | TGI (OVCAR-8 ovarian) | TGI (SNB-19 CNS) | TGI (UACC-257 melanoma) | TGI (HCC-2998 colon) | TGI (M14 melanoma) | GI50 (CAKI-1 renal) | GI50 (HS 578T breast) | TGI (HS 578T breast) | GI50 (IGROV1 ovarian) | GI50 (M14 melanoma) | GI50 (NCI-H226 lung) | GI50 (OVCAR-4 ovarian) | GI50 (OVCAR-8 ovarian) | GI50 (SNB-19 CNS) | GI50 (UACC-257 melanoma) | GI50 (HCC-2998 colon)
N#Cc1ccc(Sc2nc3ccccc3[nH]2)cc1 | > 100 µM | > 100 µM | > 100 µM | > 100 µM | > 100 µM | > 100 µM | > 100 µM | – | – | – | – | – | – | – | – | – | – | – | – | –
CCOC(=O)C1(C)CCC(C(C(=O)O)C(=O)O)CC1=O (stereo not drawn) | > 100 µM | > 100 µM | > 100 µM | > 100 µM | > 100 µM | > 100 µM | > 100 µM | > 100 µM | > 100 µM | – | – | – | – | – | – | – | – | – | – | –
Nc1nc(=S)c2c(ncn2CCO)[nH]1 | > 100 µM | > 100 µM | > 100 µM | > 100 µM | > 100 µM | > 100 µM | > 100 µM | > 100 µM | > 100 µM | – | – | – | – | – | – | – | – | – | – | –
CCOC(=O)C1=C(NC)OCC1=O | > 100 µM | > 100 µM | > 100 µM | > 100 µM | > 100 µM | > 100 µM | > 100 µM | > 100 µM | > 100 µM | – | – | – | – | – | – | – | – | – | – | –
COCCN(CCOC)c1nc(-c2ccccc2)nc2ccccc12 | 73.2 µM | 93.6 µM | 54 µM | > 100 µM | > 100 µM | > 100 µM | 36.6 µM | – | 56.6 µM | 23.2 µM | 38.8 µM | > 100 µM | 25.2 µM | 13.9 µM | 23.6 µM | 44.8 µM | 33.7 µM | 40.9 µM | 17.7 µM | –
c1ccc(C(c2ccccc2)c2ccccn2)cc1 | > 100 µM | > 100 µM | > 100 µM | > 100 µM | > 100 µM | > 100 µM | > 100 µM | > 100 µM | > 100 µM | – | – | – | – | – | – | – | – | – | – | –
COc1cc(OC)c(OC)cc1/C=C/c1nc2ccccc2s1 | – | > 100 µM | > 100 µM | – | > 100 µM | > 100 µM | > 100 µM | > 100 µM | > 100 µM | – | – | > 100 µM | – | – | – | – | – | – | – | –
COc1ccc(-c2cc(/C=C/C(=O)c3ccc(N)cc3)[nH]n2)cc1OC | – | 19 µM | 7.38 µM | 15.8 µM | 10.5 µM | 18 µM | 19.5 µM | 3.83 µM | 5.11 µM | – | 6.58 µM | > 100 µM | 4.56 µM | 2.28 µM | 2.32 µM | 2.68 µM | 2.95 µM | 4.36 µM | 6.46 µM | 2.02 µM
COc1cc(/C=C/c2csnn2)cc(OC)c1OC | > 100 µM | > 100 µM | > 100 µM | > 100 µM | > 100 µM | > 100 µM | > 100 µM | > 100 µM | > 100 µM | – | – | – | – | – | – | – | – | – | – | –
Cc1ccc(NC(=O)c2cc(S(=O)(=O)Nc3nnc(-c4ccccc4)c(-c4ccccc4)n3)c(SCc3ccccc3)cc2Cl)cc1 | 40.7 µM | 93.7 µM | 56 µM | 92.2 µM | 76.8 µM | 57.1 µM | 41.7 µM | – | > 100 µM | 21.2 µM | 25.4 µM | 57.4 µM | 26.9 µM | 34.8 µM | 21.4 µM | 25.7 µM | 29.4 µM | 20.4 µM | 20.7 µM | –
O=C1NC(=O)C2C(=O)NC(=O)C1C2Cc1ccco1 (stereo not drawn) | > 100 µM | > 100 µM | > 100 µM | > 100 µM | > 100 µM | > 100 µM | > 100 µM | > 100 µM | > 100 µM | – | – | – | – | – | – | – | – | – | – | –
CCCC(=O)CC(C)C(=O)C(=O)NC12CC3CC(CC(C3)C1)C2 (stereo not drawn) | > 100 µM | – | > 100 µM | > 100 µM | > 100 µM | > 100 µM | > 100 µM | > 100 µM | > 100 µM | – | – | – | – | – | – | – | – | – | – | –
N#CC1CC(c2ccccc2)Nc2cc(Cl)ccc2N1 (stereo not drawn) | > 100 µM | > 100 µM | > 100 µM | > 100 µM | > 100 µM | > 100 µM | > 100 µM | > 100 µM | > 100 µM | – | – | – | – | – | – | – | – | – | – | –
COc1ccc(/C=C2\C(=O)N(NC(C)=O)c3ccccc32)cc1 | > 100 µM | > 100 µM | > 100 µM | > 100 µM | > 100 µM | > 100 µM | > 100 µM | > 100 µM | > 100 µM | – | – | – | – | – | – | – | – | – | – | –
COc1ccc(-c2[nH]c3ccc(OC)cc3c2C=C(C#N)C#N)cc1 | > 100 µM | > 100 µM | > 100 µM | > 100 µM | > 100 µM | > 100 µM | > 100 µM | – | > 100 µM | – | 0.924 µM | > 100 µM | > 24 µM | 0.376 µM | 1.45 µM | > 100 µM | > 100 µM | > 37 µM | > 100 µM | –
Fc1ccc(NC(c2ccc(F)cc2)C2CCN(CCCCc3ccccc3)CC2)cc1 (stereo not drawn) | – | 5.17 µM | 3.6 µM | 3.22 µM | 4.19 µM | 4.9 µM | 3.79 µM | 3.31 µM | 3.2 µM | – | 1.7 µM | 3.9 µM | 2.18 µM | 1.59 µM | 1.78 µM | 1.41 µM | 2.05 µM | 1.99 µM | 1.97 µM | 1.76 µM
COc1cc(/C=C2\NC(=O)C(Cc3cc(OC)c(OC)c(C)c3OC)N(C(C)=O)C2=O)c(OC)c(C)c1OC (stereo not drawn) | > 100 µM | > 100 µM | > 100 µM | > 100 µM | > 100 µM | > 100 µM | > 100 µM | > 100 µM | > 100 µM | – | – | – | – | – | – | – | – | – | – | –
CCCCCCCCCCCCCCNC(=O)Nc1ccc(Cl)c(Cl)c1 | – | – | > 100 µM | > 100 µM | > 31.4 µM | > 100 µM | 11.3 µM | > 100 µM | > 44.3 µM | – | 3.14 µM | 15 µM | 1.33 µM | 2.89 µM | 3.21 µM | 2.79 µM | 3.16 µM | 4.16 µM | 2.78 µM | 2.85 µM
O=C1N[C@@H]2CCCC[C@@H]2C12CCCCC2 | – | > 100 µM | > 100 µM | > 100 µM | > 100 µM | > 100 µM | > 100 µM | > 100 µM | > 100 µM | – | – | – | – | – | – | – | – | – | – | –
